Converted amounts (≈) assume the structure as drawn. Where two headings read alike, the source gives them in different places.
Columns and labels:
[1] = system: C. difficile; test: MIC by agar dilution, C. difficile; type: cell-based, Clostridium difficile
[2] = system: MRSA; test: MIC testing by broth dilution, MRSA; type: cell-based, Staphylococcus aureus
Outline: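 Values are broth-dilution MICs, defined as the well showing no growth on visual reading after 24 h; the tested range was 32 to 0.06 μg/ml, in organism-specific media (LB, Trypticase Soy, Brain Heart Infusion). The C. difficile entries come instead from anaerobic Kirby-Bauer disk zones, normalised to NTZ.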

[3] = system: S. epidermidis 9142; test: Biofilm dispersal assay; type: cell-based, Staphylococcus epidermidis; details: drug added to 4 h biofilm
[4] = system: S. epidermidis strain 9142; test: Effect of zinc on the action of NTZ (biofilm and MIC); type: cell-based, Staphylococcus epidermidis; details: zinc 20 μM, read at 8 h
Protocol: […] As a control, ZnCl2 was added to untreated bacteria. Additional controls included testing of 10 μM CaCl2 and MgCl2 in the same format. The inhibitory effect of EDTA on biofilm production and its reversibility by Zn^2+ was also assessed as described for NTZ.

[5] = system: EAEC strain 042; test: Quantitative biofilm assay, EAEC; type: cell-based, Escherichia coli
Protocol: A quantitative biofilm assay was used to determine the effect of NTZ on biofilm formation (41). Strain 042 was grown overnight at 37° C. with shaking and inoculated 1:100 in 200 μl culture medium in Costar 96-well, flat-bottom, polystyrene microtiter plates containing appropriate concentrations of NTZ. Plates were incubated statically at 37° C. in a humidified incubator. At 24 h, bacterial growth was measured by either transferring […] aliquots to another microtiter plate to determine turbidity or by diluting 100 μl aliquots 1:100 in 9.9 ml PBS for quantitative plate counts on LB medium. Bacterial counts in triplicate are reported as cfu/ml. Biofilm was visualized following staining with 0.5% crystal violet (41) and the absorbance was read at 570 nm using a microplate reader (Molecular Dynamics). All experiments were in triplicate and reported as mean and standard deviation.
Assays were initially performed with and without 25 μg/ml NTZ using five different growth media: DMEM, DMEM with 0.4% glucose, LB, LB with 0.4% glucose, and our chemically defined medium containing 1% glucose. E. coli DH5αt served as a negative control for biofilm formation. Assays were then run with increasing concentrations of NTZ (0, 5, 10, 15, 20, 25 μg/ml) both in the chemically defined medium and in DMEM with 0.4% glucose. […]

[6] = system: E. coli 042 aggR-lacZ; test: Reporter gene fusions aggR-lacZ, aafA-phoA; type: cell-based, Escherichia coli; details: β-galactosidase, static growth, 12 μg/ml NTZ
Protocol: Reporter gene fusions were provided by James Nataro (University of Maryland) and included E. coli 042 aggR-lacZ and E. coli 042 aafA-phoA (3.4.14 and 2.94) (3) and an undefined promoterless lacZ control strain of E. coli 042. Strains were grown without shaking in MinA-G medium supplemented with 0, 12 or 25 μg/ml of NTZ for 16 h at 37° C. β-Galactosidase activity was determined spectrophotometrically and reported in Miller units (24). Alkaline phosphatase activity was also determined spectrophotometrically using p-nitrophenol as previously described (23). All assays were performed in triplicate in three independent experiments and the mean and standard deviation are reported.

[7] = system: EAEC; test: Motility in soft agar; type: cell-based, Escherichia coli; details: concentrations that inhibited biofilm formation
Protocol: EAEC strains were grown overnight in MinA-G medium at 37° C. with shaking and used to inoculate fresh MinA-G medium containing a range of NTZ concentrations (0, 5, 10, 15, 20, and 25 μg/ml) to a starting OD600 of 0.1. Growth was recorded as the absorbance at 600 nm at 30-minute intervals over a period of eight hours. […] Motility was assessed in LB soft agar (0.3% agar) containing 0 to 25 μg/ml of NTZ. The diameter of outward spreading was measured daily and inhibition computed as percent of control.

[8] = system: EAEC strains 042 and 17-2; details: previous studies (38), cited from earlier work

## CC(=O)Oc1ccccc1C(=O)Nc1ncc([N+](=O)[O-])s1 [Nitazoxanide, 2-(acetyloxy)-N-(5-nitro-2-thiazolyl)benzamide, reference compound]
[1]; 2-amino-3,5-dinitrothiophene analogues table, read-out: MIC C. difficile
  MIC: 52.1 µM (≈ 16 µg/mL)
[1]; Clostridioides difficile, Furan analogues table, read-out: MIC C. difficile
  MIC: 52.1 µM (≈ 16 µg/mL)
[1]; Clostridioides difficile, agar dilution, anaerobic, Wilkins Chalgrin agar, read-out: MIC (μM) C. difficile
  MIC: 52.1 µM (≈ 16 µg/mL)
[1]; Thiophene analogues table, read-out: MIC C. difficile
  MIC: 52.1 µM (≈ 16 µg/mL)
[2]; 2-amino-3,5-dinitrothiophene analogues table, read-out: MIC MRSA
  MIC: 39.1 µM (≈ 12 µg/mL)
[2]; Staphylococcus aureus, MRSA, broth dilution, Trypticase Soy, 24 h, read-out: MIC (μM) MRSA
  MIC: 39.1 µM (≈ 12 µg/mL)
[2]; Thiophene analogues table, read-out: MIC MRSA
  MIC: 39.1 µM (≈ 12 µg/mL)
[3]
  Dispersal of preformed biofilm: not dispersive
[4]
  Effect of Zn2+ on the growth inhibitory action (MIC): no effect
[5]; EAEC 042, MinA-G, 20 μg/ml
  Inhibition of biofilm formation: almost complete inhibition
[5]; Escherichia coli, EAEC 042, DMEM and MinA-G media, read-out: IC50 biofilm production
  IC50: ~12 µg/mL (≈ 39.1 µM)
[6]
  Increase in aggR:lacZ expression over untreated controls: ~2.5 fold
[7]
  Effect on swarming motility in soft agar: no effect
[8]; E. coli papillation assay
  Concentrations inhibitory for growth on MinA base medium: higher than 15 μg/ml
[8]
  MIC in LB medium, previous studies: > 64 µg/mL

From patent US8835644B2, “Broad spectrum benzothiophene-nitrothiazolide and other antimicrobials” (University of Virginia Patent Foundation, priority 2009, dated 2014)
